pIC50: −log10 of the molar value. Structures can show the parent of a compound that is named as a salt.
Experiments:
primary human T-cells = assay: Primary human T-cell proliferation assay stimulated with IL-2 (CellTiter-Glo); type: cell-based; conditions: primary human T-cells, IL-2, 72 hours, ATP readout; read-out: Example 4 IC50
From the text: In this assay, primary human T-cells derived from peripheral blood and pre-activated through stimulation of the T-cell receptor and CD28, proliferate in culture in response to the cytokine Interleukin-2 (IL-2). This proliferative response is dependent on the activation of JAK1 and JAK3 tyrosine kinases, which phosphorylate and activate the transcription factor Stat-5. […] A reduction in cell proliferation compared to control conditions is indicative of inhibition of the JAK kinase pathway. An exemplary assay of this type is described in greater detail below.
Primary human T-cells derived from peripheral blood and pre-activated through stimulation of the T-cell receptor and CD28, proliferate in vitro in response to the cytokine Interleukin-2 (IL-2). This proliferative response is dependent on the activation of JAK-1 and JAK-3 tyrosine kinases, which phosphorylate and activate the transcription factor Stat-5.
Human primary T cells were prepared as follows. […] The lymphocytes at the serum: ficoll interface were recovered and washed twice with 5 volumes of PBS. […] The primary T-cells were stimulated for 3-4 days, then transferred to a fresh flask and maintained in RPMI with 10% FBS and 40 U/mL IL-2.
Primary T-cells were washed twice with PBS to remove the IL-2 and resuspended in Yssel's medium at 2×10^6 cells/mL. 50 μL of cell suspension containing 80 U/mL IL-2 was added to each well of a flat bottom 96 well black plate. For the unstimulated control, IL-2 was omitted from the last column on the plate. […] 50 μL of 2× compound was added per well in duplicate and the cells were allowed to proliferate for 72 hours at 37° C.
Proliferation was measured using CellTiter-Glo® Luminescent Cell Viability Assay (Promega), which determines the number of viable cells in culture based on quantitation of the ATP present, as an indicator of metabolically active cells. The substrate was thawed and allowed to come to room temperature. After mixing the Cell Titer-Glo reagent and diluent together, 100 μL was added to each well. […]

JAK1/JAK2 pathway = assay: A549 epithelial line stimulated with IFNγ, ICAM-1 surface expression (FACS); type: cell-based, human; conditions: A549 cells, IFNγ 75 ng/mL, 24 hours, ICAM-1 expression; read-out: Example 5 IC50
From the text: The JAK activity of the compounds described herein may also be characterized by assaying the effect of compounds I and II described herein on A549 lung epithelial cells and U937 cells. A549 lung epithelial cells and U937 cells up-regulate ICAM-1 (CD54) surface expression in response to a variety of different stimuli. Therefore, using ICAM-1 expression as readout, test compound effects on different signaling pathways can be assessed in the same cell type. Stimulation with IL-1β through the IL-1β receptor activates the TRAF6/NFκB pathway resulting in up-regulation of ICAM-1. IFNγ induces ICAM-1 up-regulation through activation of the JAK1/JAK2 pathway. The up-regulation of ICAM-1 can be quantified by flow cytometry across a compound dose curve and EC50 values are calculated. […]
A549 lung epithelial cells up-regulate ICAM-1 (CD54) surface expression in response to a variety of different stimuli. Therefore, using ICAM-1 expression as readout, compound effects on different signaling pathways can be assessed in the same cell type. […] In this example, the up-regulation of ICAM-1 by IFNγ was assessed. […]
On day three, the cell media was removed and the cells were washed with 200 μL PBS (phosphate buffered saline). […] Cells were washed with ice cold FACS buffer (PBS+2% FBS) and surface ICAM-1 expression was analyzed by flow cytometry. […]

Compound: C#CCOc1ccc(Nc2nc(Nc3ccc(C)c(S(=O)(=O)NC(=O)CC)c3)ncc2F)cc1 [VI, 5-Fluoro-N2-[4-methyl-3-(N-propionylaminosulfonyl)phenyl]-N4-[4-(2-propynyloxy)phenyl]-2,4-pyrimidinediamine Arginine Salt]
- pIC50 (primary human T-cells): 6.58
- pIC50 (JAK1/JAK2 pathway): 5.30
